Reference: patent publication US20260337156A1, “SOLUBILIZING COMPOUNDS” (Vivesto AB, priority 2022, published 2026)

What was measured:
Assay type in all cases: physicochemical
[1] = appearance of the hydrated drug formulation
Experimental: 3.8 mg of compound 1 was dispensed into a 25 mL round bottom flask and dissolved in methanol (2 mL). 240 μL of a stock solution of docetaxel in methanol (5 mg/mL) was added.
(§1) The solution was evaporated to dryness in a rotary evaporator. Final drying was performed in a desiccator to remove residual solvent. Hydration of the dried film was performed by adding water for injection (1.2 mL). […] Drug loading capacity is defined as the ratio of amount API:(API+excipient).
(§2) 11 mg of example 1 was dispensed into a 25 mL round bottom flask and dissolved in methanol (2 mL). 740 μL of a stock solution of docetaxel in methanol (4.96 mg/mL) was added. The solution was evaporated to dryness in a rotary evaporator. Final drying was performed in a desiccator to remove residual solvent.
(§3) 4.5 mg of compound 1 was dispensed into a 25 mL round bottom flask and dissolved in methanol (2 mL). 1500 μL of a stock solution of cabazitaxel in methanol (1.00 mg/mL) was added. The solution was evaporated to dryness in a rotary evaporator. Final drying was performed in a desiccator to remove residual solvent.
4.5 mg of compound 1 was dispensed into a 25 mL round bottom flask and dissolved in methanol (2 mL). 1500 μL of a stock solution of cyclosporin in methanol (1.00 mg/mL) was added. The solution was evaporated to dryness in a rotary evaporator. Final drying was performed in a desiccator to remove residual solvent. […]
4.5 mg of compound 4 was dispensed into a round bottom flask and dissolved in methanol (3 mL). […] of a stock solution of docetaxel in methanol (4.96 mg/mL) was added. The solution was evaporated to dryness in a rotary evaporator. Final drying was performed in a desiccator (40 min) to remove residual solvent. Rehydration of the dried film was performed by adding 0.9% sodium chloride solution (1.5 mL).

[2] = micellar particle size and polydispersity index (ZetaSizer, dynamic light scattering) of drug formulations at different dilutions
Experimental: The particle size of the micelles in the composition is typically in the range of about 5 to about 150 nm. The particle size may be determined e.g. using Dynamic Light Scattering (DLS) in 0.9% NaCl at 1 mg/mL drug concentration, preferably using a red laser with a wavelength of 633 nm.
Micellar size was measured using a ZetaSizer from Malvern Panalytical. […]
20 mg of example 1 was dispensed into a 25 mL round bottom flask and dissolved in methanol (3 mL). 800 μL of a stock solution of docetaxel in methanol (5 mg/mL) was added. The solution was evaporated to dryness in a rotary evaporator. Final drying was performed in a desiccator to remove residual solvent. Hydration of the dried film was performed by adding water for injection (1.0 mL) to a concentration of 4 mg/mL of docetaxel. The 4 mg/mL concentration was further diluted with 0.9% sodium chloride according to the table below. […]
A serial dilution was performed for the system docetaxel:compound 1. A stock solution of docetaxel in methanol was mixed with a stock solution of the micelle forming agent (compound 1) in a round bottom flask at a weight ratio of 1:5. The mixture was evaporated to dryness in a rotary evaporator. Final drying was performed in a desiccator to remove residual solvent. Hydration of the dried film was performed by adding water for injection (1.0 mL) to a concentration of 1 mg/mL of docetaxel. The resulting solution was filtered through a 0.22 μm sterile filter and further diluted with 0.9% sodium chloride solution.
4.5 mg of compound 1 was dispensed into a 25 mL round bottom flask and dissolved in methanol (2 mL). 1500 μL of a stock solution of cabazitaxel in methanol (1.00 mg/mL) was added. The solution was evaporated to dryness in a rotary evaporator. Final drying was performed in a desiccator to remove residual solvent. […]

[3] = drug loading capacity (ratio of amount API:(API+excipient))
Experimental: as §1
20 mg of example 1 was dispensed into a 25 mL round bottom flask and dissolved in methanol (3 mL). 800 μL of a stock solution of docetaxel in methanol (5 mg/mL) was added. The solution was evaporated to dryness in a rotary evaporator. Final drying was performed in a desiccator to remove residual solvent. Hydration of the dried film was performed by adding water for injection (1.0 mL) to a concentration of 4 mg/mL of docetaxel. The 4 mg/mL concentration was further diluted with 0.9% sodium chloride according to the table below.
as §2, §3
4.5 mg of compound 1 was dispensed into a 25 mL round bottom flask and dissolved in methanol (2 mL). 1500 μL of a stock solution of cyclosporin in methanol (1.00 mg/mL) was added. The solution was evaporated to dryness in a rotary evaporator. Final drying was performed in a desiccator to remove residual solvent.
4.0 mg of compound 2 was dispensed into a 25 mL round bottom flask and dissolved in methanol (3 mL). 250 μL of a stock solution of docetaxel in methanol (5 mg/mL) was added. The solution was evaporated to dryness in a rotary evaporator. Final drying was performed in a desiccator to remove residual solvent. Hydration of the dried film was performed by adding water for injection (1.25 mL). […]
4.5 mg of compound 3 was dispensed into a 25 mL round bottom flask and dissolved in methanol (3 mL). 305 μL of a stock solution of docetaxel in methanol (4.96 mg/mL) was added. The solution was evaporated to dryness in a rotary evaporator. Final drying was performed in a desiccator to remove residual solvent.
4.5 mg of compound 3 was dispensed into a 25 mL round bottom flask and dissolved in methanol (3 mL). […] of a stock solution of docetaxel in methanol (4.96 mg/mL) was added. The solution was evaporated to dryness in a rotary evaporator. Final drying was performed in a desiccator to remove residual solvent.

[4] = micelles with cabazitaxel, ratio 3:1, 0.9% NaCl, cabazitaxel conc. 0.25 mg/mL
[5] = micelles with cabazitaxel, ratio 3:1, 0.9% NaCl, cabazitaxel conc. 0.5 mg/mL
[6] = micelles with cabazitaxel, ratio 3:1, 0.9% NaCl, cabazitaxel conc. 1 mg/mL
[7] = micelles with cyclosporin, ratio 3:1, 0.9% NaCl, cyclosporin conc. 0.25 mg/mL
[8] = micelles with cyclosporin, ratio 3:1, 0.9% NaCl, cyclosporin conc. 0.5 mg/mL
[9] = micelles with cyclosporin, ratio 3:1, 0.9% NaCl, cyclosporin conc. 1 mg/mL
[10] = micelles with docetaxel, ratio 3:1, 0.9% NaCl, docetaxel conc. 0.25 mg/mL
[11] = micelles with docetaxel, ratio 3:1, 0.9% NaCl, docetaxel conc. 0.5 mg/mL
[12] = micelles with docetaxel, ratio 3:1, 0.9% NaCl, docetaxel conc. 1 mg/mL
[13] = micelles with docetaxel, ratio 5:1, docetaxel conc. 0.25 mg/mL
[14] = micelles with docetaxel, ratio 5:1, docetaxel conc. 0.5 mg/mL
[15] = micelles with docetaxel, ratio 5:1, docetaxel conc. 1 mg/mL
[16] = micelles with docetaxel, 1.2 mg docetaxel + 3.8 mg compound, water 1.2 mL + 0.9% NaCl 1.0 mL
[17] = serial dilution, docetaxel:compound 1:5, compound conc. 0.08 mM
[18] = serial dilution, docetaxel:compound 1:5, compound conc. 0.12 mM
[19] = serial dilution, docetaxel:compound 1:5, compound conc. 0.15 mM
[20] = serial dilution, docetaxel:compound 1:5, compound conc. 0.3 mM
[21] = serial dilution, docetaxel:compound 1:5, compound conc. 0.6 mM
[22] = serial dilution, docetaxel:compound 1:5, compound conc. 1.2 mM
[23] = serial dilution, docetaxel:compound 1:5, compound conc. 2.4 mM
[24] = serial dilution, docetaxel:compound 1:5, compound conc. 4.8 mM
[25] = docetaxel, ratio 3:1, docetaxel conc. 1 mg/mL
[26] = micelles with docetaxel, ratio 2:1, 0.9% NaCl, docetaxel conc. 0.25 mg/mL
[27] = micelles with docetaxel, ratio 2:1, 0.9% NaCl, docetaxel conc. 0.5 mg/mL
[28] = micelles with docetaxel, ratio 2:1, 0.9% NaCl, docetaxel conc. 1 mg/mL

With `COc1cc(C)c(/C=C/C(C)=C/C=C/C(C)=C/C(=O)N(CCS(=O)(=O)[O-])C2CCCCC2)c(C)c1C.[Na+]` [Compound 1] the appearance of formulation ([1]; formulation with cabazitaxel, 1 mg/mL in 0.9% NaCl) was “yellow transparent solution”, the appearance of formulation ([1]; formulation with cyclosporin, 1 mg/mL in 0.9% NaCl) was “yellow transparent solution” and the appearance of formulation ([1]; formulation with docetaxel) was “yellow transparent solution”. For the same molecule, the “trend of micellar size and RSD during dilution” value ([2]; docetaxel:compound 1:5, serial dilution with 0.9% NaCl) was “The micellar size and RSD showed no significant trend during dilution”, the Particle size [2, 4] was 121.2 nm and the Polydispersity index [2, 4] was 0.079. The Particle size [2, 5] was 111.2 nm, the Polydispersity index [2, 5] was 0.102 and the Particle size [2, 6] was 87.6 nm. It also gave a Polydispersity index [2, 6] of 0.145, a Particle size [2, 7] of 60.1 nm and a Polydispersity index [2, 7] of 0.258. The Particle size [2, 8] was 53.3 nm, the Polydispersity index [2, 8] was 0.293 and the Particle size [2, 9] was 41.7 nm. It also gave a Polydispersity index [2, 9] of 0.212, a Particle size [2, 10] of 56.0 nm and a Polydispersity index [2, 10] of 0.29. It also gave a Particle size [2, 11] of 52.6 nm, a Polydispersity index [2, 11] of 0.25 and a Particle size [2, 12] of 47.7 nm. It also gave a Polydispersity index [2, 12] of 0.24, a Particle size [2, 13] of 49.6 nm and a Polydispersity index [2, 13] of 0.25. The Particle size [2, 14] was 41.5 nm, the Polydispersity index [2, 14] was 0.24 and the Particle size [2, 15] was 29.2 nm. For the same molecule, the Polydispersity index [2, 15] was 0.24, the Particle size [2, 16] was 7.0 nm and the Polydispersity index [2, 16] was 0.20. The Particle size [2, 17] was 33.73 nm, the “Polydispersity index, pdi” value [2, 17] was 0.45 and the Particle size [2, 18] was 32.72 nm. The “Polydispersity index, pdi” value [2, 18] was 0.39, the Particle size [2, 19] was 34.06 nm and the “Polydispersity index, pdi” value [2, 19] was 0.34. The Particle size [2, 20] was 37.85 nm, the “Polydispersity index, pdi” value [2, 20] was 0.25 and the Particle size [2, 21] was 36.53 nm. For the same molecule, the “Polydispersity index, pdi” value [2, 21] was 0.18, the Particle size [2, 22] was 36.5 nm and the “Polydispersity index, pdi” value [2, 22] was 0.16. The Particle size [2, 23] was 36.2 nm, the “Polydispersity index, pdi” value [2, 23] was 0.14 and the Particle size [2, 24] was 35.4 nm. The “Polydispersity index, pdi” value [2, 24] was 0.11, the Drug loading capacity ([3]; cabazitaxel, ratio 3:1, cabazitaxel conc. 0.25 mg/mL) was 25% and the Drug loading capacity ([3]; cabazitaxel, ratio 3:1, cabazitaxel conc. 0.5 mg/mL) was 25%. The Drug loading capacity ([3]; cabazitaxel, ratio 3:1, cabazitaxel conc. 1 mg/mL) was 25%, the Drug loading capacity ([3]; cyclosporin, ratio 3:1, cyclosporin conc. 0.25 mg/mL) was 25% and the Drug loading capacity ([3]; cyclosporin, ratio 3:1, cyclosporin conc. 0.5 mg/mL) was 25%. It also gave a Drug loading capacity ([3]; cyclosporin, ratio 3:1, cyclosporin conc. 1 mg/mL) of 25%, a Drug loading capacity ([3]; docetaxel 1.2 mg + compound 3.8 mg) of 24% and a Drug loading capacity [3, 25] of 25%. For the same molecule, the Drug loading capacity ([3]; docetaxel, ratio 5:1, docetaxel conc. 1 mg/mL) was 17%.
In the case of `COc1cc(C)c(/C=C/C(C)=C/C=C/C(C)=C/C(=O)N(C)CCS(=O)(=O)[O-])c(C)c1C.[Na+]` [Compound 3], the appearance of formulation ([1]; formulation with docetaxel) is reported as “transparent yellow solution”, the Particle size [2, 26] is reported as 14.0 nm and the Polydispersity index [2, 26] is reported as 0.53. The Particle size [2, 27] was 19.9 nm, the Polydispersity index [2, 27] was 0.76 and the Particle size [2, 28] was 13.5 nm. The Polydispersity index [2, 28] was 0.52, the Particle size [2, 10] was 11.8 nm and the Polydispersity index [2, 10] was 0.27. The Particle size [2, 11] was 11.3 nm, the Polydispersity index [2, 11] was 0.25 and the Particle size [2, 12] was 9.30 nm. The Polydispersity index [2, 12] was 0.33, the Drug loading capacity ([3]; docetaxel, ratio 2:1, docetaxel conc. 0.25 mg/mL) was 25% and the Drug loading capacity ([3]; docetaxel, ratio 2:1, docetaxel conc. 0.5 mg/mL) was 25%. The Drug loading capacity ([3]; docetaxel, ratio 2:1, docetaxel conc. 1 mg/mL) was 25%, the Drug loading capacity ([3]; docetaxel, ratio 3:1, docetaxel conc. 0.25 mg/mL) was 25% and the Drug loading capacity ([3]; docetaxel, ratio 3:1, docetaxel conc. 0.5 mg/mL) was 25%. The Drug loading capacity [3, 25] was 25%.
